Values belong to the compound of their own block, whether it stands above or below them.
Biological target: CDK2/Cyclin E1 full length (Homo sapiens (Human), UniProt P24941)
Test: CDK2/Cyclin E1 full length mobility shift assay
Format: biochemical

Structure (SMILES): COCCn1nccc1C(=O)Nc1cc([C@H]2CC[C@@H](OC(=O)N3CC[C@H]3C)C2)[nH]n1 [Example 593, (1R,3S)-3-[3-({[1-(2-methoxyethyl)-1H-pyrazol-5-yl]carbonyl}amino)-1H-pyrazol-5-yl]cyclopentyl (2R)-2-methylazetidine-1-carboxylate]
Ki: 2.21 nM

Structure (SMILES): O=C(Cc1nccs1)Nc1cc([C@H]2CC[C@@H](OC(=O)NCCC(F)(F)F)C2)[nH]n1 [Example 219, (1R,3S)-3-{3-[(1,3-thiazol-2-ylacetyl)amino]-1H-pyrazol-5-yl}cyclopentyl (3,3,3-trifluoropropyl)carbamate]
Ki: 3.81 nM

Structure (SMILES): CCCNC(=O)O[C@@H]1CC[C@H](c2cc(NC(=O)Cc3ccc(C)cc3S(C)(=O)=O)n[nH]2)C1 [Example 207, (1R,3S)-3-[3-({[4-methyl-2-(methylsulfonyl)phenyl]acetyl}amino)-1H-pyrazol-5-yl]cyclopentyl propylcarbamate]
Ki: 0.66 nM

Structure (SMILES): O=C(Cc1ccc(C(F)(F)F)nc1)Nc1cc([C@@H]2CC[C@H](OC(=O)NC[C@H]3C[C@H](O)C3)C2)[nH]n1 [Example 577, (1S,3R)-3-[3-({[6-(trifluoromethyl)pyridin-3-yl]acetyl}amino)-1H-pyrazol-5-yl]cyclopentyl[(trans-3-hydroxycyclobutyl)methyl]-carbamate]
Ki: 3.36 nM

Structure (SMILES): COc1cc(CC(=O)Nc2cc([C@@H]3CC[C@H](OC(=O)NC[C@@H]4CCCO4)C3)[nH]n2)ccn1 [Example 497, (1S,3R)-3-(3-{[(2-methoxypyridin-4-yl)acetyl]amino}-1H-pyrazol-5-yl)cyclopentyl [(2S)-tetrahydrofuran-2-ylmethyl]carbamate]
Ki: 4.38 nM

Structure (SMILES): COc1cc(CC(=O)Nc2cc([C@@H]3CC[C@H](OC(N)=O)C3)[nH]n2)ccn1 [Example 257, (1S,3R)-3-(3-{[(2-methoxypyridin-4-yl)acetyl]amino}-1H-pyrazol-5-yl)cyclopentyl carbamate]
Ki: 4.2 nM

Structure (SMILES): CCCN(CCC)C(=O)O[C@@H]1CC[C@H](c2cc(NC(=O)Cc3ccno3)n[nH]2)C1 [Example 225, (1R,3S)-3-{3-[(1,2-oxazol-5-ylacetyl)amino]-1H-pyrazol-5-yl}cyclopentyl dipropylcarbamate]
Ki: 2.67 nM

Structure (SMILES): CC(CC(F)F)NC(=O)O[C@@H]1CC[C@H](c2cc(NC(=O)Cc3cnn(C)c3)n[nH]2)C1 (single isomer, unassigned) [Example 387]
Ki: 0.3 nM

Structure (SMILES): CC[C@H](C)NC(=O)O[C@@H]1CC[C@H](c2cc(NC(=O)Cc3cn4cccnc4n3)n[nH]2)C1 [Example 354, (1R,3S)-3-{3-[(imidazo[1,2-a]pyrimidin-2-ylacetyl)amino]-1H-pyrazol-5-yl}cyclopentyl (2S)-butan-2-ylcarbamate]
Ki: 3.74 nM

Structure (SMILES): COc1cnc(CC(=O)Nc2cc([C@H]3CC[C@@H](OC(=O)N[C@H](C)C4CC4)C3)[nH]n2)cn1 [Example 472, (1R,3S)-3-(3-{[(5-methoxypyrazin-2-yl)acetyl]amino}-1H-pyrazol-5-yl)cyclopentyl [(1R)-1-cyclopropylethyl]carbamate]
Ki: 1.17 nM

Structure (SMILES): CC(CO)CNC(=O)O[C@@H]1CC[C@H](c2cc(NC(=O)Cc3cc(F)cc(F)c3)n[nH]2)C1 (single isomer, unassigned) [Example 538]
Ki: 2.72 nM

Structure (SMILES): Cc1nc(CC(=O)Nc2cc([C@H]3CC[C@@H](OC(=O)NC4(C)CC4)C3)[nH]n2)cs1 [Example 431, (1R,3S)-3-(3-{[(2-methyl-1,3-thiazol-4-yl)acetyl]amino}-1H-pyrazol-5-yl)cyclopentyl (1-methylcyclopropyl)carbamate]
Ki: 1.19 nM

Structure (SMILES): CC[C@H](C)NC(=O)O[C@@H]1CC[C@H](c2cc(NC(=O)c3cnn(C)c3)n[nH]2)C1 [Example 320, (1R,3S)-3-(3-{[(1-methyl-1H-pyrazol-4-yl)carbonyl]amino}-1H-pyrazol-5-yl)cyclopentyl (2S)-butan-2-ylcarbamate]
Ki: 2.95 nM

Results, then the compound that gave them:

Ki: 1.95 nM
Structure (SMILES): O=C(Cc1ccno1)Nc1cc([C@H]2CC[C@@H](OC(=O)NCC3CC3)C2)[nH]n1 [Example 465, (1R,3S)-3-{3-[(1,2-oxazol-5-ylacetyl)amino]-1H-pyrazol-5-yl}cyclopentyl (cyclopropylmethyl)carbamate]

Ki: 2.11 nM
Structure (SMILES): Cc1cc(CC(=O)Nc2cc([C@H]3CC[C@@H](OC(=O)N4CCC[C@H]4C)C3)[nH]n2)on1 [Example 633, (1R,3S)-3-(3-{[(3-methyl-1,2-oxazol-5-yl)acetyl]amino}-1H-pyrazol-5-yl)cyclopentyl (2R)-2-methylpyrrolidine-1-carboxylate]

Ki: 3.07 nM
Structure (SMILES): O=C(Cc1ccno1)Nc1cc([C@H]2CC[C@@H](OC(=O)NC3CCC3)C2)[nH]n1 [Example 458, (1R,3S)-3-{3-[(1,2-oxazol-5-ylacetyl)amino]-1H-pyrazol-5-yl}cyclopentyl cyclobutylcarbamate]

Ki: 2.77 nM
Structure (SMILES): C[C@@H]1CCN1C(=O)O[C@@H]1CC[C@H](c2cc(NC(=O)Cc3cnn(C)c3)n[nH]2)C1 [Example 587, (1R,3S)-3-(3-{[(1-methyl-1H-pyrazol-4-yl)acetyl]amino}-1H-pyrazol-5-yl)cyclopentyl (2R)-2-methylazetidine-1-carboxylate]

Ki: 4 nM
Structure (SMILES): Cc1cc(CC(=O)Nc2cc([C@H]3CC[C@@H](OC(=O)N4C[C@@](C)(O)[C@@H]4C)C3)[nH]n2)on1 [Example 622, (1R,3S)-3-(3-{[(3-methyl-1,2-oxazol-5-yl)acetyl]amino}-1H-pyrazol-5-yl)cyclopentyl (2S,3R)-3-hydroxy-2,3-dimethylazetidine-1-carboxylate]

Ki: 0.29 nM
Structure (SMILES): Cn1ncc(CC(=O)Nc2cc([C@H]3CC[C@@H](OC(=O)NC(C)(C)C)C3)[nH]n2)n1 [Example 110]

Ki: 0.32 nM
Structure (SMILES): COc1ccc(CC(=O)Nc2cc([C@H]3CC[C@@H](OC(=O)NC4(C)CCOC4)C3)[nH]n2)cc1 (single isomer, unassigned) [Example 483]

Ki: 3.91 nM
Structure (SMILES): COc1ccc(CC(=O)Nc2cc([C@H]3CC[C@@H](OC(=O)N4C[C@H](OC)[C@H]4C)C3)[nH]n2)cn1 [Example 620, (1R,3S)-3-(3-{[(6-methoxypyridin-3-yl)acetyl]amino}-1H-pyrazol-5-yl)cyclopentyl (2R,3S)-3-methoxy-2-methylazetidine-1-carboxylate]

Ki: 1.7 nM
Structure (SMILES): CC1(NC(=O)O[C@@H]2CC[C@H](c3cc(NC(=O)Cc4cn(CC(F)(F)F)nn4)n[nH]3)C2)CC1 [Example 446, (1R,3S)-3-[3-({[1-(2,2,2-trifluoroethyl)-1H-1,2,3-triazol-4-yl]acetyl}amino)-1H-pyrazol-5-yl]cyclopentyl (1-methylcyclopropyl)carbamate]

Ki: 0.58 nM
Structure (SMILES): CC[C@H](C)NC(=O)O[C@@H]1CC[C@H](c2cc(NC(=O)Cc3nnc(C)s3)n[nH]2)C1 [Example 344, (1R,3S)-3-(3-{[(5-methyl-1,3,4-thiadiazol-2-yl)acetyl]amino}-1H-pyrazol-5-yl)cyclopentyl (2S)-butan-2-ylcarbamate]

Ki: 1.51 nM
Structure (SMILES): CCC(CO)CNC(=O)O[C@@H]1CC[C@H](c2cc(NC(=O)Cc3ccc(OC)cc3)n[nH]2)C1 (single isomer, unassigned) [Example 531]

Ki: 1.6 nM
Structure (SMILES): O=C(Cc1cc(F)cc(F)c1)Nc1cc([C@H]2CC[C@@H](OC(=O)NC3CCOCC3)C2)[nH]n1 [Example 505, (1R,3S)-3-(3-{[(3,5-difluorophenyl)acetyl]amino}-1H-pyrazol-5-yl)cyclopentyl tetrahydro-2H-pyran-4-ylcarbamate]

Reference: patent publication US11014911B2, “CDK2 inhibitors” (Pfizer Inc., priority 2019, dated 2021)
